Literature values, collected in US20140017308A1, “COMPOSITIONS COMPRISING A FATTY ACID OIL MIXTURE, A FREE FATTY ACID, AND A STATIN” (Pronova Biopharma Norge AS, priority 2010, published 2014).

Details: in vivo

Row | SMILES | half-life
1 | CC[C@H](C)C(=O)O[C@H]1C[C@H](O)C=C2C=C[C@H](C)[C@H](CC[C@@H](O)C[C@@H](O)CC(=O)O)[C@H]21 [pravastatin] | about 0.8 hours
2 | CC(C)c1nc(N(C)S(C)(=O)=O)nc(-c2ccc(F)cc2)c1/C=C/[C@@H](O)C[C@@H](O)CC(=O)O [rosuvastatin] | about 20 hours
3 | CCC(C)(C)C(=O)O[C@H]1C[C@@H](C)C=C2C=C[C@H](C)[C@H](CC[C@@H]3C[C@@H](O)CC(=O)O3)[C@H]21 [simvastatin] | 2 to 3 h
